Laboratory results taken from patent US9770503B2, “Immunomodulating compositions and uses therefor” (CANCURE LIMITED ACN 164 438 359, priority 2003, dated 2017).

tested on: splenic lymphocytes cultured with C57bl6J derived B16F10 melanoma cells; experiment: Mixed lymphocyte culture (MLC) screening assay, melanoma cells as stimulators; format: cell-based, mice; details: 3 days of growth; FIG. 4
Source text: The inventor has established a rapid screening assay for analysing the immune-enhancing activities of various lectin-interactive agents. The assay is based on the ability to grow lymphocytes derived from the spleens of vaccinated mice in mixed lymphocyte culture (MLC) in the presence or absence of the agents. The theory behind this approach is that tumour cells secrete galectins which then kill the T lymphocytes.
Tumour cells, either NeuD12 FVB/N 202 breast cancer cells or C57bl6J derived B16F10 melanoma cells were used as stimulators and target cells for the assays. The tumour cells used as stimulators in the MLC were prepared as outlined in WO 01/88097 to express high levels of B7 antigen and were treated with interferon γ (1000 IU/mL) for 24 h before addition of interferon β (1000 IU/mL) for a further 24-48 h. The tumour cells were grown in 35 mm diameter×6 well cell culture dishes at about 1.5×10^6 cells per well. The tumour cells, after IFN treatment, were incubated with the growth arresting drug, mitomycin C for 20-25 min in situ in the 6-well culture dishes before it was removed by washing with PBS or fresh media three times and resuspension in 4 mL of fresh complete RPMI media/10% FCS.
Lymphocytes were extracted from the spleen of vaccinated mice and passed through a 100-200 μm stainless steel mesh sieve into 5-10 mL complete RPMI media. The red blood cells were removed by centrifugation on lymphoprep and the white blood cell layer at the interface between the culture media phase and ficoll/Hypaque phase was harvested and the ficoll/Hypaque removed by washing. […] After 2-3 days, or as required (assessed by the colour of the media pH indicator change), half the media was carefully aspirated away from each well and replaced with fresh complete media with or without added lectin-interacting agent (e.g., a carbohydrate as disclosed for instance herein generally at about 0.1 mM to about 10 mM final concentration, typically at about 1 mM). […]

Row | SMILES | proliferation of lymphocytes in a melanoma-specific MLC
1 | OC[C@H]1O[C@@H](O[C@@H]2[C@@H](CO)OC(O)(CO)[C@H]2O)[C@H](O)[C@@H](O)[C@H]1O (mixture of isomers) [lactulose] | promoting the proliferation of lymphocytes
2 | OC[C@@H](O)[C@@H](O[C@@H]1O[C@H](CO)[C@H](O)[C@H](O)[C@H]1O)[C@H](O)[C@@H](O)CO [D-lactitol monohydrate] | promoting the proliferation of lymphocytes
3 | OC[C@H]1O[C@@H](O[C@H]2[C@H](O)[C@@H](O)[C@H](OCc3ccccc3)O[C@@H]2CO)[C@H](O)[C@@H](O)[C@H]1O [benzyl 4-O-β-D-galactopyranosyl-β-D-glucopyranoside] | promoting the proliferation of lymphocytes
